According to PMC12675575, “A BRET biosensor for measuring uncompetitive engagement of PRMT5 complexes in cells” (Nature Communications, 2025):
“And” between values parts separate entries of the source, which are not always exact repeats. Identical values can stand only once.

Target: T1, PRMT7 (Homo sapiens, UniProt Q9NVM4)
T1 construct: host or cells: HEK293
T1 sequence (Q9NVM4 1-692): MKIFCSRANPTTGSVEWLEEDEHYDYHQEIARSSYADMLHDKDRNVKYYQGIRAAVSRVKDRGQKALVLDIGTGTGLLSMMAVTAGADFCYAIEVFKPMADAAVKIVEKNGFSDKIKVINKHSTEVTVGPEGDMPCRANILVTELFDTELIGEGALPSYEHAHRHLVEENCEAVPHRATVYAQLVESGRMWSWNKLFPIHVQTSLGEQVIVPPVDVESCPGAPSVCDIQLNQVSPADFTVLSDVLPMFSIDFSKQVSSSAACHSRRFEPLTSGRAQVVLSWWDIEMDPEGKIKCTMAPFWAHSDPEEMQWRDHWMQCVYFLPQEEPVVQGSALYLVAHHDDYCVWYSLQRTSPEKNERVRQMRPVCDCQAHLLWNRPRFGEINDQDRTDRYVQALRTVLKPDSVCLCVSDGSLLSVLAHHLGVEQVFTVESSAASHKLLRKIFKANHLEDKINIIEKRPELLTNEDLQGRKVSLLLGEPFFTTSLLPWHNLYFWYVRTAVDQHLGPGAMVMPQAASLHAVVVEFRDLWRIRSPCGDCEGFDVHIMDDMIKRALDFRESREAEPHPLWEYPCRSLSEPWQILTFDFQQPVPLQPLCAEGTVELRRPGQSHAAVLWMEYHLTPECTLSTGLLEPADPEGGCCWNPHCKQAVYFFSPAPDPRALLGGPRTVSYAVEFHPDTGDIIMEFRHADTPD
Assay: CBH-002 affinity curve, HEK293, PRMT7-NL fusion
Assay type: cell-based
Parameters: BRET, CBH-002 + DMSO / BRET, CBH-002 + GSK3326595: unit not given here
Settings: for BRET, CBH-002 + DMSO / BRET, CBH-002 + GSK3326595: Figure S2C PRMT7-NL, log([CBH-002])
Protocol: HEK293 cells (ATCC) were cultured in DMEM (Thermo Fisher) + 10% (v/v) FBS (Seredigm), and HCT116 cells (Horizon Discovery, #PAR-034 and #R02-033) were cultured in McCoy’s 5A (Thermo Fisher) + 10% FBS, with incubation in a humidified, 37 °C/5% CO2 incubator. Cells were split 1–3 days prior to performing experiments and used at roughly 80% confluency. […] Cells were transfected according to the manufacturer’s protocol using FuGENE HD (Promega). NanoLuc fusion DNA was diluted into Transfection Carrier DNA (Promega) in Opti-MEM at a ratio of 1:9 (mass/mass), and FuGENE HD was added at a ratio of 1:3 (μg DNA:μL lipid). For experiments using WDR77, untagged WDR77 DNA (Promega) was used in place of Carrier DNA. Formed complexes were combined with cells resuspended to a density of 2 × 10^5 cells/mL in Opti-MEM + 1% FBS at a ratio of 1:20 (vol:vol). Cells were plated into a flask and incubated at 37 °C in a humidified 5% CO2 atmosphere for 18–24 h, before being lifted and seeded into 96-well non-binding surface-treated plates (Corning). Cells were seeded at a density of 2 × 10^5 cells/mL in Opti-MEM + 1% FBS in 100 μL (96-well). The BRET probe CBH-002 was prepared first as a 100× stock in 100% DMSO (Sigma) and then diluted to a 20× stock in NanoBRET Tracer Dilution buffer (Promega). Test compounds were prepared as 1000× stocks in 100% DMSO and diluted to 10× stocks in Opti-MEM to prepare working stocks. […] NanoBRET Complete 3x Substrate was prepared by combining Nano-Glo Substrate and Extracellular NanoLuc Inhibitor in Opti-MEM, according to the manufacturer’s protocol (Promega). NanoBRET Complete 3× Substrate was added to cells and plates were measured on either a PheraSTAR FSX equipped with 450 nm (donor) and 610 nm (acceptor) filters, or a GloMAX Discover equipped with 450/8 nm BP (donor) and 600 nm LP (acceptor) filters, using a 0.3 s integration time.
EC50 values were obtained by fitting the BRET probe and compound affinity curves to a sigmoidal four-parameter fit model in Graphpad Prism:1 Y=Ymin+Ymax−Ymin/1+10^LogEC50−Xh where h is the Hill Slope.

## O=C(CCc1ccc2n1[B-](F)(F)[N+]1=C(c3ccc[nH]3)C=CC1=C2)NCCCCC(=O)N1CCC(Nc2cc(C(=O)NC[C@H](O)CN3CCc4ccccc4C3)ncn2)CC1 [CBH-002]
uM 0.04576
  BRET, CBH-002 + DMSO: 3.118 and 3.169 and 3.222
  BRET, CBH-002 + GSK3326595: 2.264 and 3.024 and 2.623
uM 0.52288
  BRET, CBH-002 + DMSO: 4.4157 and 4.315 and 4.82
  BRET, CBH-002 + GSK3326595: 4.289 and 4.449 and 4.432
uM 1
  BRET, CBH-002 + DMSO: 6.788 and 6.4376 and 8.0011
  BRET, CBH-002 + GSK3326595: 6.64 and 6.225 and 5.521
uM -0.43136
  BRET, CBH-002 + DMSO: 2.545 and 2.3934 and 2.684
  BRET, CBH-002 + GSK3326595: 2.418 and 2.903 and 2.394
uM -0.90849
  BRET, CBH-002 + DMSO: 2.174 and 2.245 and 2.2
  BRET, CBH-002 + GSK3326595: 2.014 and 2.113 and 2.172
uM -1.20952
  BRET, CBH-002 + DMSO: 2.33 and 1.992 and 2.793
  BRET, CBH-002 + GSK3326595: 1.945 and 2.184 and 2.019
uM -1.68664
  BRET, CBH-002 + DMSO: 2.292 and 2.046 and 2.033
  BRET, CBH-002 + GSK3326595: 2.038 and 1.973 and 2.006
uM -1.98767
  BRET, CBH-002 + DMSO: 1.964 and 2.061 and 2.054
  BRET, CBH-002 + GSK3326595: 1.921 and 2.272 and 1.954
uM -2.46479
  BRET, CBH-002 + DMSO: 2.032 and 2.041 and 2.0419
  BRET, CBH-002 + GSK3326595: 2.119 and 2.05 and 2.0804
uM -2.94191
  BRET, CBH-002 + DMSO: 1.985 and 2.058 and 2.072
  BRET, CBH-002 + GSK3326595: 1.954 and 1.961 and 1.971
HEK293, PRMT7-NL
  CBH-002 engagement at PRMT7: did not show engagement
